Data from US20020132813A1, “Heterocyclylalkylazole derivatives and their use as pesticides” (priority 2000, published 2002).

What was measured:
[1] = system: black bean aphids (Aphis fabae); experiment: Black bean aphid root-systemic test: solution pipetted into the bottle holding the field bean roots; assay type: in vivo; conditions: read-out: mortality of the aphids owing to the root-systemic activity
Procedure: Pregerminated field bean seeds (Vicia faba) with seminal roots were transferred into amber glass bottles filled with tap water. Four milliliters of an aqueous solution of the formulated preparation to be tested were pipetted into the amber glass bottle. Then, the field bean was infested with approx. 100 black bean aphids (Aphis fabae). The plant and animals were then stored in a controlled-environment cabinet (16 hours light/day, 25° C., 40-60% atmospheric humidity). After storage for 3 and 6 days, the root-systemic action of the preparation on the aphids was determined. At a concentration of 300 ppm (based on active substance content), the preparations of Examples No. 1, 8, 20, 28, 30, 34, 36, 40, 52, 54, 56, 58, 118, 138, 146, 148, 154, 158, 176, 184, 368, 369, 370 caused 90-100% mortality of the aphids owing to the root-systemic activity.

[2] = system: black bean aphids (Aphis fabae); experiment: Black bean aphid test: plants and aphids immersed in solution of the formulated preparation; assay type: in vivo; conditions: read-out: mortality of the aphids
Procedure: Pregerminated field bean seeds (Vicia faba) with seminal roots were transferred into amber glass bottles filled with tap water and then populated with approximately 100 black bean aphids (Aphis fabae). The plants and aphids were then immersed for 5 seconds in an aqueous solution of the formulated preparation to be tested. After the solution had been allowed to run off, the plants and animals were stored in a controlled-environment cabinet (16 hours light/day, 25° C., 40-60% atmospheric humidity). After storage for 3 and 6 days, the effect of the preparation on the aphids was determined.

Molecule `FC(F)(F)c1ccncc1-c1nc(CC2OCCCO2)no1` [Example 8, 3-(1,3-Dioxan-2-ylmethyl)-5-(4-trifluoromethyl-3-pyridyl)-1,2,4-oxadiazole] has a mortality at 300 ppm [1] of 90 to 100% and a mortality at 300 ppm [2] of 90 to 100%.
